Normal melting temperature data for one compound are collected here from the NIST ThermoML archive (doi:10.1016/j.fluid.2018.07.018).

The conditions of the data set: Crystal; DTA.

± gives the expanded uncertainty stated by the source.

For `CC(C)OC(=O)C(C)(C)Oc1ccc(C(=O)c2ccc(Cl)cc2)cc1` [fenofibrate], the Normal melting temperature came out at 82.00 ± 1.1 °C.
